Test results: patent publication US6355619B1, “Peptide tumor cell growth inhibitors” (Board of Regents, The University of Texas System, priority 1996, dated 2002)
Like-named read-outs stand apart in the source and are kept apart here.

Columns and labels:
[1] = test system: neutrophils
Method: Cytotoxicity Test. […] (●) or in RPMI-1640 media containing 1% BSA for 30 min at 37° C. (◯).
This was achieved by measuring the amount of ^51Cr released from neutrophils, as follows: The neutrophil preparation (2×10^7/ml) in RPMI-1640 media containing 10% donor's plasma was incubated with 500 μCi of Na2^51CrO4 (Du Pont Co.) for 60 min at 37° C. The cells were washed 3 times, resuspended in the media at the concentration of 1×10^7/ml, and then incubated for 30 min at 37° C. to allow spontaneous lysis of marginally viable cells. […] The buffer and the conditions of incubation simulated either the binding assay or the chemotactic assay. After the incubation, the tubes were centrifuged at 300×g for 7 min at 4° C. and the radioactivity in the supernatant was then counted in a gamma radiation spectrometer. Triplicate tubes containing buffer alone or 2% SDS were used to determine spontaneous and maximum release, respectively. The percentage lysis was calculated by using the following formula: [formula]

[2] = molecular target: T1, C5a binding to human neutrophils (Homo sapiens, UniProt P21730); test: Binding of 125I-C5a to human neutrophils; details: 100 μM peptide; 0.25 nM 125I-labeled C5a
T1 construct: endogenous in cells; host or cells: human blood neutrophils
Description: (§1) To examine the specificity of Ac-RRWWCR-NH2 (SEQ ID NO:1) on ligand-receptor binding, the inventors tested whether the peptide reduced the binding of human ^125I-C5a or ^3H-leukotriene B4 to human neutrophils.
(§2) Recombinant human fifth component of complement (C5a) (Sigma Chemical Co., St. Louis, Mo.) was radioiodinated enzymatically using Enzymobead (Bio Rad, Richmond, Calif.). Tritiated leukotriene B4 was purchased from Du Pont Co., Wilmington, Del. Binding assays for C5a and leukotriene B4 were performed as described for IL-8 binding in Example I, except that the buffers used were PBS containing 1 mM CaCl2, 0.5 mM MgCl2, 0.5% BSA, and HBSS containing 0.1% ovulabumin and 10 mM HEPES (pH7.3), respectively, as previously described (Braunwalder et al., 1992; Sherman et al., 1988). The radioactivity was measured with liquid scintillation counter for the leukotriene B4 assay. The binding of both ligands were saturable and inhibited by the non-labeled agonists in dose dependent manners.

[3] = test system: leukotriene B4-stimulated neutrophil enzyme release; test: β-glucuronidase release from neutrophils stimulated by leukotriene B4; format: cell-based, human; details: 100 nM leukotriene B4
Method: (§3) FIG. 8. The Effect of Ac-RRWWCR-NH2 (SEQ ID NO:1) on β-glucuronidase Release. Neutrophils pretreated with cytochalasin B were incubated with 100 nM IL-8 (●), 100 nM fMLP (▪), 100 nM C5a (_) or 100 nM leukotriene B4 ? or without any stimulant (◯) in the presence of increasing concentration of Ac-RRWWCR-NH2 (SEQ ID NO:1) for 30 min at 37° C. β-glucuronidase activity of supernatants were measured using phenolphthalein-glucuronic acid as substrate. Analysis of variance was used for multiple comparison.
(§4) Neutrophil enzyme release was studied by a modification of the method of Goldstein and colleagues (Goldstein et al., 1973). Cytochalasin B (Sigma Chemical Co.) was stored in dimethyl sulfoxide at a concentration of 5 mg/ml and was diluted to a concentration of 50 μg/ml in Hank's Balanced Salt Solution (HBSS) immediately before use. Cytochalasin B, 200 μl, was added to 1 ml of suspension of neutrophils, 6.25×10^6 cells/ml in HBSS, to achieve a final cytochalasin B concentration of […]. The solution was then incubated in 96 well plates at room temperature for 10 min. The stimulant, 100 μl, was added, and this cell suspension was incubated for 30 min at 37° C. The plates were centrifuged and 100 μl of supernatant was removed. […] After 16 hr incubation at 37° C., 200 μl of 0.2 M Glycine in 0.2 M NaCl, pH10.4 was added to each well and OD540 was measured as the enzyme activity.

[4] = test system: Hs 294T melanoma cells; test: Cell growth assay, Hs 294T; format: cell-based, human
Method: FIG. 15A. The effect of Antileukinate on the growth of melanoma cells. Melanoma cell lines and a control liver cancer cell line (2×10^4 cells/well) in 500 μl were cultured in a 24 well tissue culture plate in the presence of various concentrations of Antileukinate for 3 d. The culture media were changed to fresh media containing the same concentration of Antileukinate every 24 hr during the incubation period. After incubation, the cells were collected and the cell number was counted using a hemocytometer. Hs 294 T cell line. Analysis of variance was used for multiple comparison.
The cell lines (2×10^4 cells/well) in 500 μl cell culture medium were grown in 24 well tissue culture plates. After the cells adhered to the plate, the supernatants were aspirated and 500 μl of media containing various concentrations of Antileukinate were added to the wells. The cells were cultured for period indicated in the text. The culture media were changed to fresh media every 24 hr. After incubation, the cells were detached with trypsin-EDTA solution (Life Technologies Inc., Gaithersburg, Md., containing 0.05% of trypsin and 0.53 mM of EDTA in Hanks Balanced Salt Solution without Ca^2+ and Mg^2+) and the cell number was counted using a hemocytometer.

[5] = molecular target: T2, leukotriene B4 binding to human neutrophils (Homo sapiens, UniProt Q15722); test: Binding of 3H-leukotriene B4 to human neutrophils; details: 100 μM peptide; 0.4 nM 3H-labeled leukotriene B4
T2 construct: endogenous in cells; host or cells: human blood neutrophils
Description: as §1, §2

[6] = test system: adenocarcinoma from colon Caco-2; test: Tumor cell growth, Caco-2; format: cell-based
[7] = test system: IL-8-stimulated neutrophil enzyme release; test: β-glucuronidase release from neutrophils stimulated by IL-8; format: cell-based, human
Method: as §3, §4

[8] = test system: RPMI-7951; details: 16 hr
Method: The cell lines (4×10^5 cells/well) in RPMI-1640 medium containing 10% fetal bovine serum were incubated with 10 μCi of Na2^51CrO4 (DuPont NEN Co.) for 60 min at 37° C. in a 24 well tissue culture plate. The cells were washed 3 times and then incubated in cell culture medium for 30 min at 37° C. to allow spontaneous lysis of marginally viable cells. […] The cells were cultured for 16 hr at 37° C. and then the radioactivity in the supernatants was counted in a gamma radiation spectrometer. Quadriplicate wells received cell culture medium alone or 2% SDS to determine spontaneous and maximum release, respectively. The percentage lysis was calculated by using the following formula: [formula]

T1 sequence (P21730 whole entry): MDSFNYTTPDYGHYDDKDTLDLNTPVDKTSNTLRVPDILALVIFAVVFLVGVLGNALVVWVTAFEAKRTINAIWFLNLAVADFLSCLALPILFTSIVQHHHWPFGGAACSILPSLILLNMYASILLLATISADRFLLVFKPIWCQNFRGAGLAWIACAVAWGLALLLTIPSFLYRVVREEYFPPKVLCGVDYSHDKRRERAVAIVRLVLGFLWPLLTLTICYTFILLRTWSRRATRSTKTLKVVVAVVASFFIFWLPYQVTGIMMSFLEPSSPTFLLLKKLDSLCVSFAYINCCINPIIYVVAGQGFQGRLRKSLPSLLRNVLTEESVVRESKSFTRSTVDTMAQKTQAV
T2 sequence (Q15722 whole entry): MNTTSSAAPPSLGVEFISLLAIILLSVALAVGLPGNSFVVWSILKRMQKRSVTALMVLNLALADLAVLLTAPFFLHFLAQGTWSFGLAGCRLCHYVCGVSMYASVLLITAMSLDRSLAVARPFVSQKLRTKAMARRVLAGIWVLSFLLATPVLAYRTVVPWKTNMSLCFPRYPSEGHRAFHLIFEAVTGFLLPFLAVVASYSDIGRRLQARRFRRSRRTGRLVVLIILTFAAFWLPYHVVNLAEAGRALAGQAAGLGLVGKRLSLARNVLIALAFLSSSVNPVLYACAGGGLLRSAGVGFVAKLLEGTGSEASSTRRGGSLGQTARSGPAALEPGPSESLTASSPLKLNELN

## RRWWCR [Ac-RRWWCR-NH2]
[1]; 100 μM peptide, RPMI-1640 1% BSA, 30 min at 37° C.
  cell lysis under conditions used in chemotaxis: had no effect
[1]; 500 μM peptide, RPMI-1640 1% BSA, 30 min at 37° C.
  cells damaged under conditions used in chemotaxis: ~25%
[1]; PBS containing 0.1% BSA, 90 min at 4° C., up to 500 μM peptide
  percentage of cells lysed: remained near control level
[2]
  effect on binding of C5a to neutrophils: did not affect the binding
[3]
  effect on enzyme release stimulated by leukotriene B4: did not affect the enzyme release
[4]; 100 μM
  cell growth at 100 μM peptide: suppressed the cell growth almost completely
[4]; 72 hr
  peptide concentration significantly inhibiting growth: 10 µM
[4]; 72 hr, medium changed every 24 hr, read-out: ED50, cell growth inhibition
  EC50: 18 µM
[5]
  effect on binding of leukotriene B4 to neutrophils: did not affect the binding
[6]
  effect on cell growth: inhibits growth
[7]; read-out: EC50, inhibition of enzyme release from neutrophils stimulated by IL-8
  EC50: 0.8 µM
[7]; stimulated by 100 nM IL-8
  peptide concentration inhibiting β-glucuronidase release: 2 µM
[8]; RPMI-7951, 1 μM peptide
  % cell lysis: −0.8 ± 2.2%
[8]; RPMI-7951, 5 μM peptide
  % cell lysis: −2.6 ± 3.7%
[8]; RPMI-7951, 20 μM peptide
  % cell lysis: −3.4 ± 6.3%
[8]; RPMI-7951, 100 μM peptide
  % cell lysis: 6.8 ± 11.1%
